Converted amounts (≈) assume the structure as drawn.
Tests used:
[1] = test system: Tyrosinase (Agaricus bisporus); assay: Dose required for inhibitory activity against oxidation of L-DOPA by mushroom tyrosinase
[2] = target: T1, Tyrosinase (Homo sapiens) (UniProt P14679); assay: Percent inhibition of mushroom tyrosinase at concentration of 18 ug/ml
T1 sequence (whole entry): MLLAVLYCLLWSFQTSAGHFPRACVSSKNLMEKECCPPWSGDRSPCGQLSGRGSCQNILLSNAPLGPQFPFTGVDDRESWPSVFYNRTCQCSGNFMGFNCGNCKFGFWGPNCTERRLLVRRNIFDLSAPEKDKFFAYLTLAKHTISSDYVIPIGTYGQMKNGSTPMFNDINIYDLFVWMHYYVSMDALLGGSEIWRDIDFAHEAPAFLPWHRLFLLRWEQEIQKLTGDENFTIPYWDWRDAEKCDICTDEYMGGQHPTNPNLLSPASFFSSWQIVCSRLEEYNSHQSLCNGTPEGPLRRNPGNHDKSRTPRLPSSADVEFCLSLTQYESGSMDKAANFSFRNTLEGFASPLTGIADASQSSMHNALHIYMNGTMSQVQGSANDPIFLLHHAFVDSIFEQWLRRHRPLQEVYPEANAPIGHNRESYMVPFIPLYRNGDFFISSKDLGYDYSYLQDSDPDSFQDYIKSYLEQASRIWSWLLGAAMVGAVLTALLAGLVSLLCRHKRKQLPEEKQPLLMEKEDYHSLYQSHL

[3] = target: T1, Tyrosinase (Homo sapiens); assay: Percent inhibition of mushroom tyrosinase at concentration of 45 ug/ml

COc1cc(-c2oc3cc(O[C@H]4O[C@@H](COC(=O)/C=C/c5ccc(O)cc5)[C@H](O)[C@@H](O)[C@@H]4O)cc(O)c3c(=O)c2O)ccc1O
ID50 [1]: 0.44 µg/mL (≈ 0.705 µM)

O=c1c(O)c(-c2ccc(O)c(O)c2)oc2cc(O)cc(O)c12
inhibition [2]: 40% | inhibition [3]: 80%

O=C(/C=C/c1ccc(O)cc1)OC[C@@H]1O[C@H](Oc2cc(O)c3c(=O)c(O)c(-c4ccc(O)cc4)oc3c2)[C@@H](O)[C@H](O)[C@H]1O
ID50 [1]: 0.39 µg/mL (≈ 0.656 µM)

From ChEMBL document CHEMBL1127909, “Tyrosinase inhibitory flavonoids fromheterotheca inuloides and their structural functions” (Bioorg Med Chem Lett, 1994)
